# Data as given in PubChem BioAssay (NCI).
#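 Values below derive from 48-hour exposures of cells grown in 96-well plates, with endpoints linearly interpolated between the two concentrations bracketing the appropriate inhibition level. GI50: concentration for 50% inhibition of growth. At the TGI there is no net growth.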
# Assays:
# Test in all cases: NCI tumour cell line growth inhibition, 48 h
# 786-0 renal = test system: 786-0 renal
# A498 renal = test system: A498 renal
# A549 NSCLC = test system: A549 NSCLC
# ACHN renal = test system: ACHN renal
# BT-549 breast = test system: BT-549 breast
# CAKI-1 renal = test system: CAKI-1 renal
# CCRF-CEM leukemia = test system: CCRF-CEM leukemia
# COLO 205 colon = test system: COLO 205 colon
# DU-145 prostate = test system: DU-145 prostate
# EKVX NSCLC = test system: EKVX NSCLC
# HCC-2998 colon = test system: HCC-2998 colon
# HCT-116 colon = test system: HCT-116 colon
# HCT-15 colon = test system: HCT-15 colon
# HL-60(TB) leukemia = test system: HL-60(TB) leukemia
# HOP-62 NSCLC = test system: HOP-62 NSCLC
# HOP-92 NSCLC = test system: HOP-92 NSCLC
# HS 578T breast = test system: HS 578T breast
# HT29 colon = test system: HT29 colon
# IGROV1 ovarian = test system: IGROV1 ovarian
# K-562 leukemia = test system: K-562 leukemia
# KM12 colon = test system: KM12 colon
# LOX IMVI melanoma = test system: LOX IMVI melanoma
# M14 melanoma = test system: M14 melanoma
# MALME-3M melanoma = test system: MALME-3M melanoma
# MCF7 breast = test system: MCF7 breast
# MDA-MB-231 breast = test system: MDA-MB-231 breast
# MDA-MB-435 = test system: MDA-MB-435
# MOLT-4 leukemia = test system: MOLT-4 leukemia
# NCI-H226 lung = test system: NCI-H226 lung
# NCI-H23 lung = test system: NCI-H23 lung
# NCI-H460 lung = test system: NCI-H460 lung
# NCI-H522 lung = test system: NCI-H522 lung
# NCI/ADR-RES ovarian = test system: NCI/ADR-RES ovarian
# OVCAR-3 ovarian = test system: OVCAR-3 ovarian
# OVCAR-4 ovarian = test system: OVCAR-4 ovarian
# OVCAR-5 ovarian = test system: OVCAR-5 ovarian
# OVCAR-8 ovarian = test system: OVCAR-8 ovarian
# PC-3 prostate = test system: PC-3 prostate
# RPMI-8226 leukemia = test system: RPMI-8226 leukemia
# RXF 393 renal = test system: RXF 393 renal
# SF-268 CNS = test system: SF-268 CNS
# SF-295 CNS = test system: SF-295 CNS
# SF-539 CNS = test system: SF-539 CNS
# SK-MEL-2 melanoma = test system: SK-MEL-2 melanoma
# SK-MEL-28 melanoma = test system: SK-MEL-28 melanoma
# SK-MEL-5 melanoma = test system: SK-MEL-5 melanoma
# SK-OV-3 ovarian = test system: SK-OV-3 ovarian
# SN12C renal = test system: SN12C renal
# SNB-19 CNS = test system: SNB-19 CNS
# SNB-75 CNS = test system: SNB-75 CNS
# SR leukemia = test system: SR leukemia
# SW-620 colon = test system: SW-620 colon
# T-47D breast = test system: T-47D breast
# TK-10 renal = test system: TK-10 renal
# U251 CNS = test system: U251 CNS
# UACC-257 melanoma = test system: UACC-257 melanoma
# UACC-62 melanoma = test system: UACC-62 melanoma
# UO-31 renal = test system: UO-31 renal
compound,measurement,setting,value
COc1ccc(C(SCC(N)C(=O)O)(c2ccccc2)c2ccccc2)cc1 (stereo not drawn),GI50,786-0 renal,209 nM
same,GI50,A498 renal,20800 nM
same,TGI,A498 renal,> 84600 nM
same,GI50,A549 NSCLC,594 nM
same,TGI,A549 NSCLC,> 100000 nM
same,GI50,ACHN renal,3730 nM
same,TGI,ACHN renal,> 100000 nM
same,GI50,BT-549 breast,2720 nM
same,TGI,BT-549 breast,> 100000 nM
same,GI50,CAKI-1 renal,457 nM
same,TGI,CAKI-1 renal,> 100000 nM
same,GI50,CCRF-CEM leukemia,99.2 nM
same,TGI,CCRF-CEM leukemia,> 100000 nM
same,GI50,COLO 205 colon,300 nM
same,TGI,COLO 205 colon,15800 nM
same,GI50,DU-145 prostate,272 nM
same,TGI,DU-145 prostate,700 nM
same,GI50,EKVX NSCLC,436 nM
same,TGI,EKVX NSCLC,> 100000 nM
same,GI50,HCC-2998 colon,246 nM
same,TGI,HCC-2998 colon,12200 nM
same,GI50,HCT-116 colon,43 nM
same,TGI,HCT-116 colon,25800 nM
same,GI50,HCT-15 colon,451 nM
same,TGI,HCT-15 colon,> 72200 nM
same,GI50,HL-60(TB) leukemia,136 nM
same,GI50,HOP-62 NSCLC,392 nM
same,TGI,HOP-62 NSCLC,> 84500 nM
same,GI50,HOP-92 NSCLC,2000 nM
same,TGI,HOP-92 NSCLC,66800 nM
same,GI50,HS 578T breast,43.2 nM
same,TGI,HS 578T breast,3100 nM
same,GI50,HT29 colon,429 nM
same,TGI,HT29 colon,> 100000 nM
same,GI50,IGROV1 ovarian,443 nM
same,TGI,IGROV1 ovarian,> 82300 nM
same,GI50,K-562 leukemia,56.7 nM
same,TGI,K-562 leukemia,> 45800 nM
same,GI50,KM12 colon,239 nM
same,TGI,KM12 colon,21300 nM
same,GI50,LOX IMVI melanoma,668 nM
same,TGI,LOX IMVI melanoma,25700 nM
same,GI50,M14 melanoma,30.9 nM
same,TGI,M14 melanoma,126 nM
same,GI50,MALME-3M melanoma,> 43000 nM
same,TGI,MALME-3M melanoma,> 100000 nM
same,GI50,MCF7 breast,38.5 nM
same,TGI,MCF7 breast,> 100000 nM
same,GI50,MDA-MB-231 breast,230 nM
same,TGI,MDA-MB-231 breast,4720 nM
same,GI50,MDA-MB-435,30.6 nM
same,GI50,MOLT-4 leukemia,439 nM
same,TGI,MOLT-4 leukemia,> 100000 nM
same,GI50,NCI-H226 lung,11800 nM
same,TGI,NCI-H226 lung,> 71200 nM
same,GI50,NCI-H23 lung,414 nM
same,TGI,NCI-H23 lung,> 87400 nM
same,GI50,NCI-H460 lung,230 nM
same,TGI,NCI-H460 lung,> 41900 nM
same,GI50,NCI-H522 lung,104 nM
same,TGI,NCI-H522 lung,> 100000 nM
same,GI50,NCI/ADR-RES ovarian,2120 nM
same,TGI,NCI/ADR-RES ovarian,33700 nM
same,GI50,OVCAR-3 ovarian,67.7 nM
same,TGI,OVCAR-3 ovarian,503 nM
same,GI50,OVCAR-4 ovarian,29700 nM
same,TGI,OVCAR-4 ovarian,> 100000 nM
same,GI50,OVCAR-5 ovarian,4820 nM
same,TGI,OVCAR-5 ovarian,> 100000 nM
same,GI50,OVCAR-8 ovarian,482 nM
same,TGI,OVCAR-8 ovarian,> 100000 nM
same,GI50,PC-3 prostate,185 nM
same,TGI,PC-3 prostate,> 100000 nM
same,GI50,RPMI-8226 leukemia,41.9 nM
same,TGI,RPMI-8226 leukemia,> 56500 nM
same,GI50,RXF 393 renal,190 nM
same,TGI,RXF 393 renal,> 100000 nM
same,GI50,SF-268 CNS,87.7 nM
same,TGI,SF-268 CNS,71500 nM
same,GI50,SF-295 CNS,94.8 nM
same,TGI,SF-295 CNS,> 100000 nM
same,GI50,SF-539 CNS,72.1 nM
same,TGI,SF-539 CNS,15100 nM
same,GI50,SK-MEL-2 melanoma,5030 nM
same,TGI,SK-MEL-2 melanoma,> 79500 nM
same,GI50,SK-MEL-28 melanoma,3120 nM
same,TGI,SK-MEL-28 melanoma,> 100000 nM
same,GI50,SK-MEL-5 melanoma,62.3 nM
same,TGI,SK-MEL-5 melanoma,19700 nM
same,GI50,SK-OV-3 ovarian,190 nM
same,TGI,SK-OV-3 ovarian,> 100000 nM
same,GI50,SN12C renal,199 nM
same,TGI,SN12C renal,> 68400 nM
same,GI50,SNB-19 CNS,59.4 nM
same,TGI,SNB-19 CNS,> 100000 nM
same,GI50,SNB-75 CNS,447 nM
same,TGI,SNB-75 CNS,88100 nM
same,GI50,SR leukemia,3210 nM
same,TGI,SR leukemia,> 100000 nM
same,GI50,SW-620 colon,74.5 nM
same,TGI,SW-620 colon,> 100000 nM
same,GI50,T-47D breast,409 nM
same,TGI,T-47D breast,> 100000 nM
same,GI50,TK-10 renal,20600 nM
same,TGI,TK-10 renal,> 100000 nM
same,GI50,U251 CNS,49.7 nM
same,TGI,U251 CNS,> 57000 nM
same,GI50,UACC-257 melanoma,26300 nM
same,TGI,UACC-257 melanoma,> 100000 nM
same,GI50,UACC-62 melanoma,171 nM
same,TGI,UACC-62 melanoma,> 56700 nM
same,GI50,UO-31 renal,13600 nM
same,TGI,UO-31 renal,> 100000 nM
